Test results from patent US10813354B2, “Herbicidal pyridazinone compounds” (SYNGENTA PARTICIPATIONS AG, priority 2016, dated 2020).

Assays:
Format in all cases: in vivo
Details in all cases: sprayed after 10 days cultivation, evaluated after 14 days
[1] = tested on: ECHCG (Echinochloa crus-galli); assay: Post-emergence glasshouse herbicide test on ECHCG
Method: (§1) Seeds of a variety of test species HORVW (Hordeum vulgare—barley), ABUTH (Abutilon theophrasti), AMARE (Amaranthus retroflexus) and ECHCG (Echinochloa crus-galli) were sown in standard soil in pots. After cultivation for 10 days cultivation under controlled conditions in a glasshouse (at 24/16° C., day/night; 14 hours light; 65% humidity), the plants were sprayed with an aqueous spray solution derived from the formulation of the technical active ingredient in 0.6 ml acetone and 45 ml formulation solution containing 10.6% Emulsogen EL (Registry number 61791-12-6), 42.2% N-methyl pyrrolidone, 42.2% dipropylene glycol monomethyl ether (CAS RN 34590-94-8) and 0.2% X-77 (CAS RN 11097-66-8).
(§2) The test plants were then grown in a glasshouse under controlled conditions in a glasshouse (at 24/16° C., day/night; 14 hours light; 65% humidity) and watered twice daily. After 14 days, the test was evaluated (100=total damage to plant; 0=no damage to plant).

[2] = tested on: ABUTH (Abutilon theophrasti); assay: Post-emergence glasshouse herbicide test on ABUTH
Method: as §1, §2

[3] = tested on: HORVW (Hordeum vulgare—barley); assay: Post-emergence glasshouse herbicide test, crop damage on barley
Method: as §1, §2

[4] = tested on: AMARE (Amaranthus retroflexus); assay: Post-emergence glasshouse herbicide test on AMARE
Method: as §1, §2

Row | Compound | ECHCG damage to plant (100=total damage to plant; 0=no damage to plant) ([1]; Rate 125 g/ha) | ECHCG damage to plant (100=total damage to plant; 0=no damage to plant) ([1]; Rate 250 g/ha) | ABUTH damage to plant (100=total damage to plant; 0=no damage to plant) ([2]; Rate 125 g/ha) | ABUTH damage to plant (100=total damage to plant; 0=no damage to plant) ([2]; Rate 250 g/ha) | HORVW damage to plant (100=total damage to plant; 0=no damage to plant) ([3]; Rate 125 g/ha) | HORVW damage to plant (100=total damage to plant; 0=no damage to plant) ([3]; Rate 250 g/ha) | AMARE damage to plant (100=total damage to plant; 0=no damage to plant) ([4]; Rate 125 g/ha) | AMARE damage to plant (100=total damage to plant; 0=no damage to plant) ([4]; Rate 250 g/ha)
1 | COc1ccc(-n2nc(C)cc(C(=O)C3C(=O)C4CCC(C4)C3=O)c2=O)cc1OC (centres unmarked) [Compound 1.1, 3-[2-(3,4-dimethoxyphenyl)-6-methyl-3-oxo-pyridazine-4-carbonyl]bicyclo[3.2.1]octane-2,4-dione] | 100 | 100 | 100 | 100 | 0 | 0 | 100 | 100
2 | COc1ccc(-n2nc(C)cc(C(=O)C3C(=O)CC(C)CC3=O)c2=O)cc1OC (centres unmarked) [Compound 1.2] | 100 | 100 | 100 | 100 | 0 | 0 | 100 | 100
3 | COc1ccc(-n2nc(C)cc(C(=O)C3C(=O)CCCC3=O)c2=O)cc1OC [Compound 1.3, 2-[2-(3,4-Dimethoxyphenyl)-6-methyl-3-oxo-pyridazine-4-carbonyl]cyclohexane-1,3-dione] | 100 | 100 | 100 | 100 | 0 | 0 | 100 | 100
4 | COc1ccc(-n2nc(C)cc(C(=O)C3C(=O)CC(C)(C)CC3=O)c2=O)cc1OC [Compound 1.4] | 100 | 100 | 100 | 100 | 0 | 10 | 100 | 100
5 | COc1ccc(-n2nc(C)cc(C(=O)C3C(=O)C(C)(C)C(=O)C(C)(C)C3=O)c2=O)cc1OC [Compound 1.5] | 90 | 90 | 100 | 100 | 0 | 0 | 100 | 100
6 | COc1ccc(-n2nc(C3CC3)cc(C(=O)C3C(=O)C4CCC(C4)C3=O)c2=O)cc1OC (centres unmarked) [Compound 1.9] | 100 | 100 | 100 | 100 | 0 | 10 | 90 | 100
7 | COc1ccc(-n2nc(C3CC3)cc(C(=O)C3C(=O)C(C)(C)C(=O)C(C)(C)C3=O)c2=O)cc1OC [Compound 1.11, 6-[6-cyclopropyl-2-(3,4-dimethoxyphenyl)-3-oxo-pyridazine-4-carbonyl]-2,2,4,4-tetramethyl-cyclohexane-1,3,5-trione] | 100 | 100 | 100 | 100 | 0 | 0 | 100 | 100
